The results in this text go back to PubChem BioAssay (NCI).

Holding throughout (test): NCI-60 cell line screen, 48 h
The test system of experiment [1] is EKVX NSCLC.
Experiment [2] relates to T-47D breast.
Experiment [3] concerns HOP-92 NSCLC.
Experiment [4] concerns SN12C renal.
The subject of experiment [5] is COLO 205 colon.
For experiment [6], the system named is HL-60(TB) leukemia.
Experiment [7] has as its system SK-OV-3 ovarian.
Experiment [8] relates to OVCAR-5 ovarian.
Experiment [9] has as its system HS 578T breast.
The subject of experiment [10] is SNB-19 CNS.

Each structure is given as a SMILES string.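 Step 1: Grow cells in 96-well plates. Step 2: Expose to compound for 48 hours at 5 concentrations. Step 3: Interpolate endpoints linearly; if unreached, use highest concentration. GI50: concentration for 50% inhibition of growth. TGI: total growth inhibition.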 Where only a bound is given, the exact number is not on record here.

Turning to `O=C1c2cccnc2C(=O)c2c1c(C(=O)OCCc1ccccn1)c1ccccn21`, the GI50 in experiment [1] was 0.305 µM; in experiment [2] it was 1.71 µM; in experiment [3] it was 0.121 µM; in experiment [4], 0.0261 µM; in [5], 1.45 µM; in [6] it was 0.783 µM. Further, the GI50 in [7] was 0.0539 µM; in experiment [8] it was 0.497 µM; in [9], less than 0.0338 µM; in [10] it was 0.0308 µM. In addition, the TGI in experiment [1] came out at 3.81 µM; in experiment [2] it was 8.39 µM; in experiment [3] it was 5.58 µM; in [4], 1.59 µM; in experiment [5] it was 3.16 µM; in [6], 5.93 µM. The TGI was determined as 1.17 µM in experiment [7], 10.5 µM in experiment [8], 3.21 µM in experiment [9] and 1.59 µM in [10].

In the case of `C/C(=N/NC(=S)N1CC2CCC(CC2)C1)c1cnccn1`, the TGI amounted to 12.3 µM in [1]; 13.3 µM in experiment [2]; 12.7 µM in [3]; 14.4 µM in experiment [4]; 10.9 µM in experiment [5]; 3.18 µM in experiment [6]. For the same compound, the TGI in experiment [7] is 11.9 µM; in experiment [8] it was 24.6 µM; in experiment [9], 11.4 µM; in experiment [10], 14.2 µM.

On to `O=C(NS(=O)(=O)c1ccc(NC[C@H]2COCCO2)c([N+](=O)[O-])c1)c1ccc(N2CCN(CC3=C(c4ccc(Cl)cc4)CC4(CCC4)CC3)CC2)cc1Oc1cnc2[nH]ccc2c1`, for which the GI50 in [1] is 2.87 µM; in experiment [2], 2.24 µM; in [3], 1.43 µM; in [4], 1.91 µM; in experiment [5], 1.85 µM; in experiment [6], 1.6 µM. The GI50 in experiment [7] is 1.95 µM; in experiment [8], 1.73 µM; in experiment [9] it was 2.12 µM; in experiment [10], 2.39 µM. Besides, the TGI in experiment [1] turned out to be 9.12 µM; in [2], 8.99 µM; in experiment [3], 3.05 µM; in [4], 3.72 µM; in experiment [5] it was 3.4 µM; in experiment [6], 4.83 µM. Further, the TGI turned out to be 4.57 µM in [7], 4.03 µM in experiment [8], 5.76 µM in experiment [9] and 7.28 µM in experiment [10].

On to `CC1(C)OC2C(CO)OC(n3ccc(N)nc3=O)C2O1` (centres undefined), for which the TGI in experiment [1], in [2], in [3], in experiment [4], in experiment [5] and in [6] was more than 100 µM in each case. Also, the TGI in [7], in experiment [8], in experiment [9] and in [10] was more than 100 µM throughout.

With `NS(=O)(=O)c1ccc(N=C2C(=O)Nc3ccccc32)cc1`, the TGI was more than 100 µM in [1]; more than 100 µM in experiment [2]; more than 100 µM in experiment [3]; more than 100 µM in [4]; 98.4 µM in [5]; more than 100 µM in experiment [6]. In addition, the TGI in experiment [7], in experiment [8], in experiment [9] and in experiment [10] was more than 100 µM each time.

For `O=C1NC(=O)C(c2ccccc2)=C1Nc1ccccc1`, the GI50 in [1], in experiment [2], in experiment [4], in experiment [5], in experiment [6] and in experiment [7] was more than 25 µM each time. The GI50 in [8] was more than 25 µM; in experiment [9], 16.3 µM; in experiment [10], more than 25 µM. In addition, the TGI in experiment [1], in experiment [2], in experiment [4], in [5], in [6] and in experiment [7] was more than 25 µM throughout. In addition, the TGI in experiment [8], in experiment [9] and in experiment [10] was more than 25 µM each time.

As to `COc1ccc(/C=C/C(=O)c2ccc(Nc3nc(Nc4ccc(F)cc4)nc(Nc4ccc(Cl)cc4)n3)cc2)cc1`, the GI50 in [1] is more than 100 µM; in experiment [2] it was 72.6 µM; in [3], 31.1 µM; in experiment [4] it was more than 100 µM; in [5], 24.2 µM; in experiment [6] it was 84 µM. Also, the GI50 in [7] is more than 100 µM; in [8] it was more than 100 µM; in experiment [9], 14.6 µM; in [10], more than 100 µM. For the same compound, the TGI in experiment [1] is more than 100 µM; in experiment [2], more than 100 µM; in [3] it was 88.7 µM; in [4], more than 100 µM; in experiment [5] it was more than 100 µM; in [6] it was more than 100 µM. Further, the TGI in experiment [7] is more than 100 µM; in experiment [8], more than 100 µM; in experiment [9], 52.3 µM; in [10], more than 100 µM.

Turning to `O=C(Cc1ccc(Nc2ccnc(C(F)(F)F)c2)cc1)N/N=C/c1ccccc1O`, the GI50 is 3.05 µM in [1]; 3.26 µM in experiment [2]; 1.97 µM in experiment [3]; 2.9 µM in [4]; 4.33 µM in experiment [5]; 1.9 µM in experiment [6]. Besides, the GI50 in experiment [7] was 3.13 µM; in experiment [8], 7.62 µM; in experiment [9], 2.66 µM; in experiment [10] it was 4.36 µM. Moreover, the TGI is more than 60.9 µM in [1]; 17.7 µM in experiment [2]; 21 µM in experiment [3]; more than 58.6 µM in experiment [4]; 22.8 µM in experiment [5]; 5.44 µM in [6]. In addition, the TGI in [7] is more than 68.5 µM; in experiment [8], more than 83.1 µM; in [9] it was 29 µM; in experiment [10], more than 100 µM.

Take `Cn1c(NCC(CN2CCCC2)OC(=O)c2ccccc2)cc(=O)n(C)c1=O` (centres undefined): the GI50 in experiment [1], in [2], in [3], in [4], in experiment [5] and in experiment [7] was more than 100 µM throughout. Also, the GI50 in experiment [8], in experiment [9] and in experiment [10] was more than 100 µM throughout. The TGI in experiment [1], in [2], in experiment [3], in [4], in experiment [5] and in experiment [7] was more than 100 µM in each case. In addition, the TGI in experiment [8], in experiment [9] and in experiment [10] was more than 100 µM each time.

As for `NC(=O)CCc1ccccc1Oc1nccc(-c2c(-c3ccc(F)cc3)ncn2C2CCNCC2)n1`, the GI50 in experiment [1], in [2], in experiment [4], in [5], in experiment [6] and in experiment [7] was more than 25 µM throughout. Also, the GI50 in experiment [8], in experiment [9] and in experiment [10] was more than 25 µM throughout. Also, the TGI in [1], in experiment [2], in [4], in experiment [5], in [6] and in experiment [7] was more than 25 µM in each case. In addition, the TGI in [8], in experiment [9] and in [10] was more than 25 µM each time.

`Cn1c(=O)c2[nH]c(CCCc3ccc([N+](=O)[O-])cc3)nc2n(C)c1=O`: the TGI in experiment [1], in experiment [2], in experiment [3], in [4], in experiment [5] and in [7] was more than 100 µM in each case. Besides, the TGI in experiment [8], in experiment [9] and in experiment [10] was more than 100 µM in each case.

Regarding `O=c1[nH]c2ccccc2n2cc3ccccc3c12`, the GI50 in [1] was 4.74 µM; in experiment [2], 7.45 µM; in experiment [3], 3.99 µM; in [4], 1.67 µM; in experiment [5] it was 4.52 µM; in [7], 12.4 µM. In addition, the GI50 is 10.4 µM in [8], 0.52 µM in experiment [9] and 8.93 µM in experiment [10]. The TGI was 69.4 µM in experiment [1]; more than 100 µM in experiment [2]; 18.5 µM in experiment [3]; 6.32 µM in [4]; more than 100 µM in [5]; 35.8 µM in experiment [7]. Moreover, the TGI in experiment [8] was 35.5 µM; in experiment [9] it was 34.7 µM; in [10], more than 100 µM.

As to `NCCCNc1nc2ccc(Cl)cc2c2c(=O)c3cc(F)ccc3sc12`, the GI50 was 6 µM in [1]; 9.65 µM in experiment [2]; 1.58 µM in [3]; 2.27 µM in experiment [4]; 2.71 µM in experiment [5]; 3.13 µM in experiment [6]. The GI50 in experiment [8] was 3.38 µM; in [9], 3.22 µM; in experiment [10], 9.43 µM. In addition, the TGI in experiment [1] turned out to be 21.2 µM; in [2], 34.3 µM; in experiment [3] it was 6.51 µM; in [4] it was 6.08 µM; in experiment [5] it was 8.91 µM; in experiment [6] it was 10.7 µM. The TGI stood at 14.3 µM in experiment [8], 17.7 µM in experiment [9] and 25.4 µM in experiment [10].
